Source: patent publication US20240218022A1, “ANTI-VISTA MACROCYCLIC PEPTIDES AND COMPOSITIONS” (BRISTOL-MYERS SQUIBB COMPANY, priority 2022, published 2024)
pIC50: −log10 of the molar value. Starred links: 1 amine or outer side, 2 acyl side, 3 side chain; linkers in the order of their positions; H or OH if unused. Positions of bridges follow the written chain, without caps; N, C: chain ends. Non-standard residues stand in square brackets, D forms with d. Residues, ends and D or L forms follow the SMILES beside them. γGlu = O=C(O)[C@H](CCC(=O)[*:2])N[*:1]; NMeL = CN[C@@H](CC(C)C)C(=O)O; Ahp(2) = CCCCC[C@H](N)C(=O)O; NMeNle = CCCC[C@H](NC)C(=O)O; Tle = CC(C)(C)[C@H](N)C(=O)O; NMeV = CN[C@H](C(=O)O)C(C)C; NHexGly = CCCCCCNCC(=O)O; Nle = CCCC[C@H](N)C(=O)O; Orn = NCCC[C@H](N)C(=O)O; Aun = NCCCCCCCCCCC(=O)O

The molecules below were run against T1, mouse VISTA (mVISTA) (Mus musculus, UniProt Q9D659) (assay: Cell-Based Binding High-Content Assay For mVISTA (HC CBA mVISTA)). Details: read-out: HC CBA mVISTA IC50.
T1 construct: expressed in transfected cells; host or cells: Human embryonic kidney 293T cells
T1 sequence (Q9D659 33-308): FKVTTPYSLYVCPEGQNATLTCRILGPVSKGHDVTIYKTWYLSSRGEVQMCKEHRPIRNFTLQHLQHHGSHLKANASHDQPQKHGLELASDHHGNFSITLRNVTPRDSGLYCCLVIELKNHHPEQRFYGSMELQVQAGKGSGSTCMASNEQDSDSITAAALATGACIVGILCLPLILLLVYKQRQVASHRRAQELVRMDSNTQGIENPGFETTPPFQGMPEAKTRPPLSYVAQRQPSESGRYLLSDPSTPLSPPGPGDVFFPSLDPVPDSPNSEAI
In short: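 Competition of compound with a biotinylated peptide (final 2 nM, 30 min at RT) for binding to mVISTA on 293T cells, run under no-wash or wash (1 h compound preincubation then removal) formats. Readout by Alexa 647–streptavidin imaging on a high-content platform; four-parameter logistic fit gave IC50.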

Row | pIC50 | Compound
1 | 7.80 | CCCCCCN1CC(=O)N[C@@H](Cc2ccc(O)cc2)C(=O)N[C@@H](CC(C)C)C(=O)N[C@@H](CC(N)=O)C(=O)N[C@@H](CCCNC(=N)N)C(=O)N[C@@H](CC(C)C)C(=O)N[C@@H](CCCCC)C(=O)N2CCC[C@H]2C(=O)N[C@@H](C(C)C)C(=O)N[C@@H](CO)C(=O)N[C@H](C(=O)N[C@@H](CCC(=O)NCCCCCCCCCCC(=O)O)C(=O)O)CSCC(=O)N[C@@H](Cc2ccccc2)C(=O)N[C@@H](Cc2ccc(O)cc2)C(=O)N[C@@H](CC(=O)O)C1=O [Example 2127] ({CH2CO}-FYD[NHexGly]YLNRL[Ahp(2)]PVSC[γGlu][Aun]-OH; thioether N-14)
2 | 7.52 | CCCCCCN1CC(=O)N[C@@H](Cc2ccc(O)cc2)C(=O)N[C@@H](CC(C)C)C(=O)NCC(=O)N[C@@H](CCCNC(=N)N)C(=O)N[C@@H](CC(C)C)C(=O)N[C@@H](CCCCC)C(=O)N2CCC[C@H]2C(=O)N[C@@H](C(C)C)C(=O)N[C@@H](CO)C(=O)N[C@H](C(=O)N[C@@H](CCC(=O)NCCCCCCCCCCC(=O)O)C(=O)O)CSCC(=O)N[C@@H](Cc2ccccc2)C(=O)N[C@@H](Cc2ccc(O)cc2)C(=O)N[C@@H](CC(=O)O)C1=O [Example 2128] ({CH2CO}-FYD[NHexGly]YLGRL[Ahp(2)]PVSC[γGlu][Aun]-OH; thioether N-14)
3 | 7.78 | CCCCCCN1CC(=O)N[C@@H](Cc2ccc(O)cc2)C(=O)N[C@@H](CCCCC)C(=O)N[C@@H](CC(N)=O)C(=O)N[C@@H](CCCNC(=N)N)C(=O)N[C@@H](Cc2c[nH]c3ccccc23)C(=O)N[C@@H](CCCCC)C(=O)N2CCC[C@H]2C(=O)N[C@@H](C(C)C)C(=O)N[C@@H](CO)C(=O)N[C@H](C(=O)N[C@@H](CCC(=O)NCCCCCCCCCCC(=O)O)C(=O)O)CSCC(=O)N[C@@H](Cc2ccccc2)C(=O)N[C@@H](Cc2ccc(O)cc2)C(=O)N[C@@H](CC(=O)O)C1=O [Example 2129] ({CH2CO}-FYD[NHexGly]Y[Ahp(2)]NRW[Ahp(2)]PVSC[γGlu][Aun]-OH; thioether N-14)
4 | 7.43 | CCCCCCN1CC(=O)N[C@@H](Cc2ccc(O)cc2)C(=O)N[C@@H](CCCC)C(=O)NCC(=O)N[C@@H](CCCNC(=N)N)C(=O)N[C@@H](CC(C)C)C(=O)N[C@@H](CCCCC)C(=O)N2CCC[C@H]2C(=O)N[C@@H](C(C)C)C(=O)N[C@@H](CC(N)=O)C(=O)N[C@H](C(=O)N[C@@H](CCC(=O)NCCCCCCCCCCC(=O)O)C(=O)O)CSCC(=O)N[C@@H](Cc2ccccc2)C(=O)N[C@@H](Cc2ccc(O)cc2)C(=O)N[C@@H](CC(=O)O)C1=O [Example 2130] ({CH2CO}-FYD[NHexGly]Y[Nle]GRL[Ahp(2)]PVNC[γGlu][Aun]-OH; thioether N-14)
5 | 7.42 | CCCCCCN1CC(=O)N[C@@H](Cc2ccc(O)cc2)C(=O)N[C@@H](CC(C)C)C(=O)N[C@@H](CC(N)=O)C(=O)N[C@@H](CCCNC(=N)N)C(=O)N(C)[C@@H](CCCC)C(=O)N[C@@H](CCCCC)C(=O)N2CCC[C@H]2C(=O)N[C@@H](C(C)(C)C)C(=O)N[C@@H](CO)C(=O)N[C@H](C(=O)N[C@@H](CCC(=O)NCCCCCCCCCCC(=O)O)C(=O)O)CSCC(=O)N[C@@H](Cc2ccccc2)C(=O)N[C@@H](Cc2c[nH]c3ccccc23)C(=O)N[C@@H](CC(=O)O)C1=O [Example 2131] ({CH2CO}-FWD[NHexGly]YLNR[NMeNle][Ahp(2)]P[Tle]SC[γGlu][Aun]-OH; thioether N-14)
6 | 7.63 | CCCCCCN1CC(=O)N[C@@H](Cc2ccc(O)cc2)C(=O)N[C@@H](CC(C)C)C(=O)N[C@@H](CC(N)=O)C(=O)N[C@@H](CCCN)C(=O)N(C)[C@@H](CCCC)C(=O)N[C@@H](CCCCC)C(=O)N2CCC[C@H]2C(=O)N[C@@H](C(C)(C)C)C(=O)N[C@@H](CO)C(=O)N[C@H](C(=O)N[C@@H](CCC(=O)NCCCCCCCCCCC(=O)O)C(=O)O)CSCC(=O)N[C@@H](Cc2ccccc2)C(=O)N[C@@H](Cc2ccc(O)cc2)C(=O)N[C@@H](CC(=O)O)C1=O [Example 2132] ({CH2CO}-FYD[NHexGly]YLN[Orn][NMeNle][Ahp(2)]P[Tle]SC[γGlu][Aun]-OH; thioether N-14)
7 | 7.62 | CCCCCCN1CC(=O)N[C@@H](Cc2ccc(O)cc2)C(=O)N[C@@H](CC(C)C)C(=O)N[C@@H](CC(N)=O)C(=O)N[C@@H](CCCNC(=N)N)C(=O)N(C)[C@@H](C(C)C)C(=O)N[C@@H](CCCCC)C(=O)N2CCC[C@H]2C(=O)N[C@@H](C(C)(C)C)C(=O)N[C@@H](CO)C(=O)N[C@H](C(=O)N[C@@H](CCC(=O)NCCCCCCCCCCC(=O)O)C(=O)O)CSCC(=O)N[C@@H](Cc2ccccc2)C(=O)N[C@@H](Cc2ccc(O)cc2)C(=O)N[C@@H](CC(=O)O)C1=O [Example 2133] ({CH2CO}-FYD[NHexGly]YLNR[NMeV][Ahp(2)]P[Tle]SC[γGlu][Aun]-OH; thioether N-14)
8 | 7.66 | CCCCCCN1CC(=O)N[C@@H](Cc2ccc(O)cc2)C(=O)N[C@@H](CC(C)C)C(=O)N[C@@H](CC(N)=O)C(=O)N[C@@H](CCCN)C(=O)N(C)[C@@H](CCCC)C(=O)N[C@@H](CCCCC)C(=O)N2CCC[C@H]2C(=O)N[C@@H](C(C)(C)C)C(=O)N[C@@H](CO)C(=O)N[C@H](C(=O)N[C@@H](CCC(=O)NCCCCCCCCCCC(=O)O)C(=O)O)CSCC(=O)N[C@@H](Cc2ccccc2)C(=O)N[C@@H](Cc2c[nH]c3ccccc23)C(=O)N[C@@H](CC(=O)O)C1=O [Example 2134] ({CH2CO}-FWD[NHexGly]YLN[Orn][NMeNle][Ahp(2)]P[Tle]SC[γGlu][Aun]-OH; thioether N-14)
9 | 7.51 | CCCCCCN1CC(=O)N[C@@H](Cc2ccc(O)cc2)C(=O)N[C@@H](CC(C)C)C(=O)N[C@@H](CC(N)=O)C(=O)N[C@@H](CCCNC(=N)N)C(=O)N(C)[C@@H](CC(C)C)C(=O)N[C@@H](CCCCC)C(=O)N2CCC[C@H]2C(=O)N[C@@H](C(C)(C)C)C(=O)N[C@@H](CO)C(=O)N[C@H](C(=O)N[C@@H](CCC(=O)NCCCCCCCCCCC(=O)O)C(=O)O)CSCC(=O)N[C@@H](Cc2ccccc2)C(=O)N[C@@H](Cc2ccc(O)cc2)C(=O)N[C@@H](CC(=O)O)C1=O [Example 2135] ({CH2CO}-FYD[NHexGly]YLNR[NMeL][Ahp(2)]P[Tle]SC[γGlu][Aun]-OH; thioether N-14)
10 | 7.70 | CCCCCCN1CC(=O)N[C@@H](Cc2ccc(O)cc2)C(=O)N[C@@H](CC(C)C)C(=O)N[C@@H](CC(N)=O)C(=O)N[C@@H](CCCNC(=N)N)C(=O)N(C)[C@@H](CCCC)C(=O)N[C@@H](CCCCC)C(=O)N2CCC[C@H]2C(=O)N[C@@H](C(C)(C)C)C(=O)N[C@@H](CO)C(=O)N[C@H](C(=O)N[C@@H](CCC(=O)NCCCCCCCCCCC(=O)O)C(=O)O)CSCC(=O)N[C@@H](Cc2ccccc2)C(=O)N[C@@H](Cc2ccc(O)cc2)C(=O)N[C@@H](CC(=O)O)C1=O [Example 2136] ({CH2CO}-FYD[NHexGly]YLNR[NMeNle][Ahp(2)]P[Tle]SC[γGlu][Aun]-OH; thioether N-14)
11 | 7.74 | CCCCCCN1CC(=O)N[C@@H](Cc2ccc(O)cc2)C(=O)N[C@@H](CC(C)C)C(=O)N[C@@H](CC(N)=O)C(=O)N[C@@H](CCCN)C(=O)N(C)[C@@H](C(C)C)C(=O)N[C@@H](CCCCC)C(=O)N2CCC[C@H]2C(=O)N[C@@H](C(C)(C)C)C(=O)N[C@@H](CO)C(=O)N[C@H](C(=O)N[C@@H](CCC(=O)NCCCCCCCCCCC(=O)O)C(=O)O)CSCC(=O)N[C@@H](Cc2ccccc2)C(=O)N[C@@H](Cc2ccc(O)cc2)C(=O)N[C@@H](CC(=O)O)C1=O [Example 2137] ({CH2CO}-FYD[NHexGly]YLN[Orn][NMeV][Ahp(2)]P[Tle]SC[γGlu][Aun]-OH; thioether N-14)
12 | 7.48 | CCCCCCN1CC(=O)N[C@@H](Cc2ccc(O)cc2)C(=O)N[C@@H](CC(C)C)C(=O)N[C@@H](CC(N)=O)C(=O)N[C@@H](CCCN)C(=O)N(C)[C@@H](CC(C)C)C(=O)N[C@@H](CCCCC)C(=O)N2CCC[C@H]2C(=O)N[C@@H](C(C)(C)C)C(=O)N[C@@H](CO)C(=O)N[C@H](C(=O)N[C@@H](CCC(=O)NCCCCCCCCCCC(=O)O)C(=O)O)CSCC(=O)N[C@@H](Cc2ccccc2)C(=O)N[C@@H](Cc2ccc(O)cc2)C(=O)N[C@@H](CC(=O)O)C1=O [Example 2138] ({CH2CO}-FYD[NHexGly]YLN[Orn][NMeL][Ahp(2)]P[Tle]SC[γGlu][Aun]-OH; thioether N-14)
13 | 7.34 | CCCCCCN1CC(=O)N[C@@H](Cc2ccc(O)cc2)C(=O)N[C@@H](CCCCN)C(=O)N[C@@H](CC(N)=O)C(=O)N[C@@H](CCCN)C(=O)N(C)[C@@H](CCCC)C(=O)N[C@@H](CCCCC)C(=O)N2CCC[C@H]2C(=O)N[C@@H](C(C)(C)C)C(=O)N[C@@H](CO)C(=O)N[C@H](C(=O)N[C@@H](CCC(=O)NCCCCCCCCCCC(=O)O)C(=O)O)CSCC(=O)N[C@@H](Cc2ccccc2)C(=O)N[C@@H](Cc2ccc(O)cc2)C(=O)N[C@@H](CC(=O)O)C1=O [Example 2139] ({CH2CO}-FYD[NHexGly]YKN[Orn][NMeNle][Ahp(2)]P[Tle]SC[γGlu][Aun]-OH; thioether N-14)
14 | 7.38 | CCCCCCN1CC(=O)N[C@@H](Cc2ccc(O)cc2)C(=O)N[C@@H](CCCCN)C(=O)N[C@@H](CC(N)=O)C(=O)N[C@@H](CCCN)C(=O)N(C)[C@@H](CCCC)C(=O)N[C@@H](CCCCC)C(=O)N2CCC[C@H]2C(=O)N[C@@H](C(C)(C)C)C(=O)N[C@@H](CC(=O)O)C(=O)N[C@H](C(=O)N[C@@H](CCC(=O)NCCCCCCCCCCC(=O)O)C(=O)O)CSCC(=O)N[C@@H](Cc2ccccc2)C(=O)N[C@@H](Cc2ccc(O)cc2)C(=O)N[C@@H](CC(=O)O)C1=O [Example 2140] ({CH2CO}-FYD[NHexGly]YKN[Orn][NMeNle][Ahp(2)]P[Tle]DC[γGlu][Aun]-OH; thioether N-14)
